Measured values reported in PubChem BioAssay AID2060502 (Molecular Pharmacology Branch, DTP, NCI, 2025).

System: 885724-159-R-J1-PDC complex spheroid viability
Test: Anticancer human tumor 885724-159-R-J1-PDC patient-derived pancreatic adenocarcinoma cell line growth inhibition [GQUAD]
Conditions: for IC50: curve of first compound; for viability, T/C: stronger effect = lower value
Method in brief: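 Multi-cell-type spheroids of tumor cells with HUVEC and mesenchymal stem cells, treated with drug combinations. Concentrations descend in half-log steps from near clinical Cmax, or from 10 microM where Cmax is unknown; viability read-out.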

[1] = second compound 0.0316 µM, first compound 0.0316 µM
[2] = second compound 0.0316 µM, first compound 0.1 µM
[3] = second compound 0.0316 µM, first compound 0.316 µM
[4] = second compound 0.0316 µM, first compound 1 µM
[5] = second compound 0.0316 µM, first compound 3.16 µM
[6] = second compound 0.0316 µM, first compound 10 µM
[7] = second compound 0.1 µM, first compound 0.0316 µM
[8] = second compound 0.1 µM, first compound 0.1 µM
[9] = second compound 0.1 µM, first compound 0.316 µM
[10] = second compound 0.1 µM, first compound 1 µM
[11] = second compound 0.1 µM, first compound 3.16 µM
[12] = second compound 0.1 µM, first compound 10 µM
[13] = second compound 0.316 µM, first compound 0.0316 µM
[14] = second compound 0.316 µM, first compound 0.1 µM
[15] = second compound 0.316 µM, first compound 0.316 µM
[16] = second compound 0.316 µM, first compound 1 µM
[17] = second compound 0.316 µM, first compound 3.16 µM
[18] = second compound 0.316 µM, first compound 10 µM
[19] = second compound 1 µM, first compound 0.0316 µM
[20] = second compound 1 µM, first compound 0.1 µM
[21] = second compound 1 µM, first compound 0.316 µM
[22] = second compound 1 µM, first compound 1 µM
[23] = second compound 1 µM, first compound 3.16 µM
[24] = second compound 1 µM, first compound 10 µM
[25] = second compound 3.16 µM, first compound 0.0316 µM
[26] = second compound 3.16 µM, first compound 0.1 µM
[27] = second compound 3.16 µM, first compound 0.316 µM
[28] = second compound 3.16 µM, first compound 1 µM
[29] = second compound 3.16 µM, first compound 3.16 µM
[30] = second compound 3.16 µM, first compound 10 µM
[31] = second compound 10 µM, first compound 0.0316 µM
[32] = second compound 10 µM, first compound 0.1 µM
[33] = second compound 10 µM, first compound 0.316 µM
[34] = second compound 10 µM, first compound 1 µM
[35] = second compound 10 µM, first compound 3.16 µM
[36] = second compound 10 µM, first compound 10 µM
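Also: spheroids exposed to agents for seven days before readout.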
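For viability, T/C in this document: percent of vehicle control viability where 100% = DMSO wells.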

For `COc1cccc2c1C(=O)c1c(O)c3c(c(O)c1C2=O)CC(O)(C(=O)CO)CC3OC1CC(N)C(O)C(C)O1` (stereo unspecified) + CN(C)c1ccc(Nc2c3ccc(NC(=O)CCN4CCCC4)cc3nc3cc(NC(=O)CCN4CCCC4)ccc23)cc1, the IC50 (second compound 0.0316 µM) was 2170 nM, the IC50 (second compound 0.1 µM) was 2010 nM and the IC50 (second compound 0.316 µM) was 1730 nM. The IC50 (second compound 1 µM) was 1580 nM, the IC50 (second compound 3.16 µM) was 1620 nM and the IC50 (second compound 10 µM) was 1110 nM. For the same molecule, the viability, T/C [1] was 101%, the viability, T/C [2] was 96.3% and the viability, T/C [3] was 96.2%. It also gave a viability, T/C [4] of 73.9%, a viability, T/C [5] of 38.1% and a viability, T/C [6] of 1.56%. For the same molecule, the viability, T/C [7] was 89.4%, the viability, T/C [8] was 95.5% and the viability, T/C [9] was 81%. The viability, T/C [10] was 73.6%, the viability, T/C [11] was 35.4% and the viability, T/C [12] was 2.82%. The viability, T/C [13] was 88.6%, the viability, T/C [14] was 87.8% and the viability, T/C [15] was 80.7%. The viability, T/C [16] was 55.3%, the viability, T/C [17] was 40.5% and the viability, T/C [18] was 1.92%. The viability, T/C [19] was 81.1%, the viability, T/C [20] was 75% and the viability, T/C [21] was 68.6%. The viability, T/C [22] was 57%, the viability, T/C [23] was 39.8% and the viability, T/C [24] was 1.53%. The viability, T/C [25] was 83.8%, the viability, T/C [26] was 71% and the viability, T/C [27] was 78.7%. For the same molecule, the viability, T/C [28] was 59.2%, the viability, T/C [29] was 35.1% and the viability, T/C [30] was 1.32%. For the same molecule, the viability, T/C [31] was 74.2%, the viability, T/C [32] was 79.7% and the viability, T/C [33] was 59.1%. It also gave a viability, T/C [34] of 52.5%, a viability, T/C [35] of 32.7% and a viability, T/C [36] of 1.06%.

Work on `COc1ccc([C@@H](O)c2cc(-c3ncnc4cc(N5CCOCC5)ccc34)c(F)cc2Cl)nn1` + Cc1cnc(CNC(=O)c2c(=O)c3ccc(N4CCCN(C)CC4)nc3n3c2sc2ccccc23)cn1 yielded an IC50 (second compound 0.0316 µM) of 5430 nM, an IC50 (second compound 0.1 µM) of 6180 nM and an IC50 (second compound 0.316 µM) of 4570 nM. The IC50 (second compound 1 µM) was 4180 nM, the IC50 (second compound 3.16 µM) was 2870 nM and the IC50 (second compound 10 µM) was 2360 nM. For the same molecule, the viability, T/C [1] was 107%, the viability, T/C [2] was 112% and the viability, T/C [3] was 91.5%. It also gave a viability, T/C [4] of 92.3%, a viability, T/C [5] of 61.6% and a viability, T/C [6] of 34.9%. It also gave a viability, T/C [7] of 109%, a viability, T/C [8] of 96.7% and a viability, T/C [9] of 88.1%. It also gave a viability, T/C [10] of 88.8%, a viability, T/C [11] of 67.5% and a viability, T/C [12] of 37%. For the same molecule, the viability, T/C [13] was 104%, the viability, T/C [14] was 98.9% and the viability, T/C [15] was 102%. The viability, T/C [16] was 82.9%, the viability, T/C [17] was 58.8% and the viability, T/C [18] was 32.9%. For the same molecule, the viability, T/C [19] was 93.5%, the viability, T/C [20] was 81.5% and the viability, T/C [21] was 75.9%. For the same molecule, the viability, T/C [22] was 75.7%, the viability, T/C [23] was 51.9% and the viability, T/C [24] was 35.1%. For the same molecule, the viability, T/C [25] was 78.6%, the viability, T/C [26] was 71.2% and the viability, T/C [27] was 70.4%. The viability, T/C [28] was 62.4%, the viability, T/C [29] was 49.9% and the viability, T/C [30] was 24.6%. The viability, T/C [31] was 73.2%, the viability, T/C [32] was 77.9% and the viability, T/C [33] was 67.6%. The viability, T/C [34] was 59.7%, the viability, T/C [35] was 47.5% and the viability, T/C [36] was 21.2%.

`C#Cc1c(F)ccc2cc(O)cc(-c3ncc4c(N5CC6CCC(C5)N6)nc(OCC56CCCN5CC(F)C6)nc4c3F)c12` (stereo unspecified) + CN(C)c1ccc(Nc2c3ccc(NC(=O)CCN4CCCC4)cc3nc3cc(NC(=O)CCN4CCCC4)ccc23)cc1 was tested, and the IC50 (second compound 0.0316 µM) was 4170 nM, the IC50 (second compound 0.1 µM) was 4290 nM and the IC50 (second compound 0.316 µM) was 5210 nM. The IC50 (second compound 1 µM) was 4330 nM, the IC50 (second compound 3.16 µM) was 2940 nM and the IC50 (second compound 10 µM) was 2130 nM. The viability, T/C [1] was 92.1%, the viability, T/C [2] was 112% and the viability, T/C [3] was 94.8%. The viability, T/C [4] was 86.9%, the viability, T/C [5] was 58.8% and the viability, T/C [6] was 22.8%. The viability, T/C [7] was 114%, the viability, T/C [8] was 100% and the viability, T/C [9] was 98.3%. The viability, T/C [10] was 86.2%, the viability, T/C [11] was 56.7% and the viability, T/C [12] was 26.1%. For the same molecule, the viability, T/C [13] was 95%, the viability, T/C [14] was 100% and the viability, T/C [15] was 96.6%. The viability, T/C [16] was 79.2%, the viability, T/C [17] was 68.1% and the viability, T/C [18] was 28.7%. It also gave a viability, T/C [19] of 89.4%, a viability, T/C [20] of 72.7% and a viability, T/C [21] of 87.8%. It also gave a viability, T/C [22] of 79.3%, a viability, T/C [23] of 59.5% and a viability, T/C [24] of 24.6%. It also gave a viability, T/C [25] of 78.3%, a viability, T/C [26] of 68.1% and a viability, T/C [27] of 69.5%. The viability, T/C [28] was 60.9%, the viability, T/C [29] was 51.4% and the viability, T/C [30] was 24.7%. The viability, T/C [31] was 64.8%, the viability, T/C [32] was 68.7% and the viability, T/C [33] was 58%. It also gave a viability, T/C [34] of 84.2%, a viability, T/C [35] of 40.2% and a viability, T/C [36] of 2.3%.
